Laboratory results as given in a melting point compilation (Tetko et al.; mined from patent text by program, amines drawn as free bases though some values may be those of a salt).

Cc1c(-c2ccccc2)oc2cc(NC(=O)C(=O)O)ccc2c1=O showed a melting point of 243 °C. With COC(=O)C1C=CCN2C(=O)C(C)(CCOC3CCCCO3)C(=O)N12 (stereo not drawn) the melting point was 128 °C. With CCCCCC[C@H](C)Oc1ccc(-c2ccc(O)c([N+](=O)[O-])c2)cc1 the melting point was 40 °C. CCN(CC)CC(=O)OC1CC2(C)C(C(C)=O)CCC2C2CCC3CC(O)C(SC#N)CC3(C)C12 (stereo not drawn) showed a melting point of 173 to 180 °C. With COC(=O)C(OCc1ccc(-c2ccc(Cl)cc2)cc1)(C(F)(F)F)C(F)(F)F the melting point was 61.5 to 62.5 °C. Compound CN1CCC(OC2c3cccc(CCc4ccccc4)c3CCn3cc(-c4ccccc4)nc32)CC1 (stereo not drawn) has a melting point of 67 °C. In the case of O=C(Nc1ccc(C(=O)N2C[C@@H]3C[C@@H](O)CN3C(=O)c3ccccc32)cc1)c1ccccc1-c1ccccc1, the melting point is reported as 176 to 178 °C. OCc1cc2cc3c(cc2nc1I)OCCO3 gave a melting point of 178 to 180 °C. CCOCCN(CCOCC)NC(=O)NS(=O)(=O)c1ccc(Cl)cc1 showed a melting point of 84.5 to 85.5 °C. CN1CCC(N2C(=O)Nc3ccccc3C2c2ccccc2)CC1 (stereo not drawn) gave a melting point of 252 to 253 °C. Compound O=C(NCCN1CCC(O)(c2ccc(Cl)cc2)CC1)c1ccc(F)cc1[N+](=O)[O-] has a melting point of 144 °C. With Cc1ccc(C(O)C2OC2C(C)(C)C)cc1 (stereo not drawn) the melting point was 36 to 39 °C. Compound COC(=O)c1ccc(N=Cc2cccc(F)c2)cn1 has a melting point of 111 to 114 °C. COC(=O)c1c(C(=O)OC)c(-c2ccc(OC)c(OC)c2)c2c(O)c(OC)c(OC)cc2c1O gave a melting point of 179 °C. With C=CC(=O)Nc1n[nH]c2cc(Cl)ccc12 the melting point was 205 °C. Compound CC1(C)COc2ccc(C(=O)Nc3ccc(C(=O)O)cc3)cc2OC1 has a melting point of 249 to 251 °C. CC(C)(C)OC(=O)N1CCN(C(=O)N2CCC(c3[nH]nc4c3C(=O)c3c(NC(=O)NN5CCOCC5)cccc3-4)CC2)CC1 gave a melting point of 231 to 232 °C. In the case of CS(=O)(=O)Nc1ccc(Cl)c(F)c1, the melting point is reported as 109 to 111 °C. With CN(C)CCN(C1CCN(C)CC1)S(=O)(=O)c1ccc(Nc2nccc(Nc3ccc(F)cc3)n2)cc1 the melting point was 135 to 137 °C. CC(=O)OCC1OC(SCC=Cc2ccccc2)C(OC(C)=O)C(OC(C)=O)C1OC(C)=O (stereo not drawn) gave a melting point of 113 to 114 °C. For CNC(=O)c1cccnc1C, the melting point was 69 to 72 °C. O=C(O)CCC(=O)N1CCc2cc(S(=O)(=O)N3CCN(c4cccc(C(F)(F)F)c4)CC3)ccc21 gave a melting point of 274 to 276 °C. In the case of c1ccc(-c2noc(-c3cccc4ccccc34)n2)nc1, the melting point is reported as 132 to 136 °C. In the case of CCN(CC)CC1CCn2c(nc3ccccc32)S1 (stereo not drawn), the melting point is reported as 93 to 94 °C. CS(=O)c1ccc2c(c1)OC(C)(C)O2 (stereo not drawn) showed a melting point of 87 to 88 °C. Cc1cc(Cl)ccc1N1C(=O)c2ccc(Br)cc2C1=O gave a melting point of 207 to 210 °C. In the case of COc1ccc(N(CC(=O)NCCC(=O)O)C(=O)c2ccc(Cl)cc2)cc1, the melting point is reported as 129 to 131 °C. With CC(CCC=O)C1CC=C2C3=C(CCC21C)C1(C)CCC(=O)C(C)(C)C1CC3 (stereo not drawn) the melting point was 96.5 to 97 °C. CC(=O)OCc1nnc(-c2ccc3occ(-c4cccc(OC(F)(F)F)c4)c3c2)o1 showed a melting point of 93 to 94 °C. Work on O=C1C(c2ccccc2)N(c2ccc(Oc3ccccc3)cc2)C(=S)N1c1ccccc1 (stereo not drawn) yielded a melting point of 100 °C. With COc1ccc(C2=NN(C3CCN(C(=O)N4CCOCC4)CC3)C(=O)[C@@H]3CC=CC[C@H]23)cc1OC the melting point was 184 to 185 °C. O=C1CCCC(=O)N1CCCn1c2ccccc2c2nc3ccccc3nc21 gave a melting point of 312 to 314 °C. CC(C)(n1cncn1)C(O)(Cn1cncn1)c1ccc(Cl)cc1 (stereo not drawn) gave a melting point of 114 °C. With COC(=O)c1ccc(OC)c2c1OCCO2 the melting point was 84 °C. With O=c1[nH]c2ccccc2n2cc(-c3ccccc3)cc12 the melting point was 301 to 303 °C. CC(=O)C(=NNc1ccccc1)C(=O)OCC(C)C gave a melting point of 45 to 50 °C. Compound COc1cc2c(cc1-c1c(C)nn(C)c1C)-c1c(-c3cccs3)c3c(n1CC2)C(=O)N(C(C)C)CCN(C(=O)OC(C)(C)C)C3 has a melting point of 232 to 234 °C. COC(=O)C1=C(C)Nc2c(c(-c3ccccc3)nn2C)C1c1ccc(F)cc1 (stereo not drawn) showed a melting point of 181 to 183 °C. CNS(=O)(=O)c1cc2c(cc1CC(=O)O)CCCC2 gave a melting point of 153 to 155 °C. With CCCCCc1ccc(CCCCCC(=O)O)cc1 the melting point was 29 to 30 °C. Work on BrCc1noc2ccccc12 yielded a melting point of 60 to 62 °C. Work on Cc1sc(S(=O)(=O)NC(C)(C)CO)cc1NC(=O)c1cnn2c(C(F)(F)F)cc(-c3ccc(C(F)(F)F)cc3)nc12 yielded a melting point of 225 °C. With O=[N+]([O-])c1cnc2ccc(SC(c3ccccc3)(c3ccccc3)c3ccccc3)nn12 the melting point was 168 to 170 °C. CCCc1c(Cl)sc2[nH]c(=O)c(=O)[nH]c12 showed a melting point of 285 to 287 °C. Compound COc1ccc(N2CCN(c3c(C)c(C)c4c(c3C)C(O)C(C)(C)O4)CC2)cc1 (stereo not drawn) has a melting point of 159 to 161 °C. With Cc1cc(C)cc(N(CCCC(N)=O)Cc2ccc3nc(NCCCN4CCOCC4)n(Cc4cccc(Br)n4)c3c2)c1 the melting point was 82 °C. Cc1ccc(Nc2c3ccccc3nc3c(C)cccc23)cc1NC(=O)Oc1ccc(N(CCCl)CCCl)cc1 gave a melting point of 154 to 156 °C. Compound CCCCn1nc2c(N)nc3ccccc3c2c1CCCS(=O)(=O)c1ccccc1 has a melting point of 206 to 207 °C. With CCOc1ccc2c(c1)C(c1ccccc1Cl)(N(C)C)C(=O)N2S(=O)(=O)c1ccc(NC(=O)N(CC)CC)cc1OC (stereo not drawn) the melting point was 212 to 214 °C. Compound CNC(=O)CC1CCN(Cc2cnc3cc(NC(=O)c4ccc(-c5ccc(F)cc5)cc4)c(C)cc3c2)CC1 has a melting point of 243 °C. Compound CCN1CCc2ccc(OC)c(Nc3ncc(Cl)c(Nc4ccc(N5CCOCC5)cc4OC)n3)c2CC1=O has a melting point of 87 to 103 °C. Compound Cc1ccc(C2c3c(C)c(N4CCN(c5ccc(C#N)cc5)CC4)c(C)c(C)c3OC2(C)C)cc1 (stereo not drawn) has a melting point of 216 to 217 °C. CN(C)c1cc(C(=O)O)ncn1 gave a melting point of 250 °C. Work on O=C1SC(CCCC#Cc2ccc(Cl)cc2)(S(=O)(=O)c2ccc(I)cc2)C(=O)N1Cc1ccc([N+](=O)[O-])cc1 (stereo not drawn) yielded a melting point of 172 to 175 °C. O=C(O)c1c(O)cccc1-n1cccn1 gave a melting point of 175 to 179 °C. Cc1nc(-c2ccccc2)cc(-c2ccc([N+](=O)[O-])cc2)c1C(=O)O gave a melting point of 260 to 263 °C. CN(C)C(=O)c1ccccc1Sc1ccc(Br)cc1[N+](=O)[O-] gave a melting point of 112 to 114 °C. CCOC(=O)CN(Cc1cccnc1)c1ccc(C(O)(C(F)(F)F)C(F)(F)F)cc1 gave a melting point of 55 °C. In the case of COc1cc(-c2cccc(C)c2)cc2oc(=O)c(C)c(C)c12, the melting point is reported as 114 °C. Cc1cc(=O)c(-c2ccc(Oc3cccc(OC(F)(F)F)c3)cc2)c(C)[nH]1 showed a melting point of 244 to 246 °C. Compound CN1CC2CN(C)CC(C1)C2OCc1ccccc1 (stereo not drawn) has a melting point of 70 to 75 °C. Compound OCC1OC(n2c(Cl)nc3cc(Cl)c(Br)cc32)C(O)C1O (stereo not drawn) has a melting point of 158 to 159 °C. CCOc1ccc(C=CC(=O)c2c(OCC)cc(OCC)cc2OC(=O)CC)cc1 gave a melting point of 84.5 °C. O=C(O)CCSC1c2cccc(O)c2C(=O)c2c(O)cccc21 showed a melting point of 152 to 153 °C. For OCc1ccc(-c2cccc(C(F)(F)F)c2)o1, the melting point was 45 °C. With O=C1COCC2=C1C(c1ccc(F)c(I)c1)C1=C(CCS1)N2 (stereo not drawn) the melting point was over 260 °C. CCOC(=O)COC(=O)COc1ccc(OCC(=O)OCC)cc1NC(=O)c1ccc(OCCCCc2ccccc2)cc1 gave a melting point of 64 °C. Compound Cc1nc2c(OCc3c(Cl)ccc([N+](=O)[O-])c3Cl)cccn2c1Br has a melting point of 217 to 219 °C. Work on COC(=O)[C@@H]1C[C@H](C(=O)OC(C)(C)C)N(C(=O)CNC(=O)Nc2cccc(C)c2)[C@@H]1c1ccccc1 (racemic) yielded a melting point of 130 °C. Compound C=CCNC(=S)n1nc(Oc2ncc(C(F)(F)F)cc2Cl)cc1C has a melting point of 46 to 48 °C. In the case of CC1(C)Nc2ccccc2-c2c(N)cnn21, the melting point is reported as 181 to 183 °C. Work on CCOC(=O)C(NC(=O)c1ccc(Cl)cc1)C(=O)OCC yielded a melting point of 89.5 to 90.3 °C. In the case of COc1cc(C)cc(OC)c1-c1ccccc1C(=O)O, the melting point is reported as 187 °C. In the case of OC1(Cc2nc[nH]n2)CCCc2ccccc21 (stereo not drawn), the melting point is reported as 105 to 108 °C. CCC(=O)Nc1ccc(C(=O)C(C)Br)cc1 (stereo not drawn) showed a melting point of 126 to 127 °C. Compound Cc1c(-c2cc(C(F)(F)F)cc(C(F)(F)F)c2)c(F)cc2nc(N)nc(N)c12 has a melting point of 224 to 225 °C. With O=c1[nH]nc2c3c(cccc13)N=C(CN1CCCN(S(=O)(=O)c3ccccc3)CC1)N2 the melting point was 265 to 268 °C. O=C(c1ccccc1)c1ccc(OCCCCOc2ccc(C(=O)c3ccccc3)cc2)cc1 showed a melting point of 163 to 164 °C. For CCc1c(C(=O)C(C)C)c2ccc(C#N)cc2n1Cc1ccccc1Cl, the melting point was 132 to 134 °C. Cc1csc2nc(CO)cn12 gave a melting point of 156 to 157 °C. CC(C)(C)OC(=O)N1CCC(COc2ccc([N+](=O)[O-])cc2)CC1 gave a melting point of 130 to 131 °C. Work on CCCNC(=O)Nc1ccccc1Nc1ccc(C(=O)c2ccccc2)cc1 yielded a melting point of 167 to 169 °C. Cc1ccccc1Oc1cccc(C=O)c1O gave a melting point of 56 to 58 °C. O=C1Cc2cc(Cl)ccc2N1O gave a melting point of 202 to 208 °C. CN(c1ccccc1)S(=O)(=O)c1ccc(NC(=O)C(C)(O)C(F)(F)F)cc1 (stereo not drawn) showed a melting point of 147 to 149 °C. CC(C)N(CCN1C(=O)/C(=N/NC(=O)NCc2ccccc2)c2ccccc21)C(C)C showed a melting point of 164 to 165 °C. Compound COc1ccccc1C=Cc1ccccc1 has a melting point of 69 to 70 °C. Work on COc1ccc(CN2CC=C(/C=C/c3ccccc3)CC2)cc1 yielded a melting point of 144 to 146 °C. O=c1[nH]c2ncc(-c3cccc(-c4cn[nH]n4)c3)nc2n1CC1CCCCC1 showed a melting point of 299 to 301 °C. Work on COC(=O)CCc1ccc(-n2c(C)cn(-c3ccc(C#N)cc3)c2=O)cc1 yielded a melting point of 168 to 170 °C. For CSc1ncc(Oc2ccc(Cl)cc2)c(=O)[nH]1, the melting point was 232 to 233 °C. Work on OCC(O)Cn1cnc2c(Cl)nc3ccccc3c21 (stereo not drawn) yielded a melting point of 223 to 225 °C. Work on COCC(=O)NCc1cccc(-c2csc(N=C(N)N)n2)n1 yielded a melting point of 195 to 196 °C. In the case of C#CCc1c(C)nc2c(OCc3ccccc3S(C)(=O)=O)cccn12, the melting point is reported as 179 to 180 °C. In the case of O=C(Nc1ccc2ccc(Cl)nc2n1)c1cccc(Br)c1, the melting point is reported as 224 °C. For CCOC(=O)/C=C/c1ccc(OCCCOCCOC)cc1Oc1ncc(C(F)(F)F)cc1Cl, the melting point was 65 to 67 °C. COc1ccccc1N1CCN(C2(C(=O)c3ccc(Cl)cc3)CC2)CC1 gave a melting point of 103 to 104 °C. For Cc1nc(N)nc(N)c1-c1ccc(F)cc1Cl, the melting point was 238 °C.
